From patent publication US8227508B2, “Dietary and pharmaceutical compositions containing carnosol and/or rosmanol and their uses” (DSM IP Assets B.V., priority 2006, dated 2012)

Experiments:
mouse = test: Marble burying test; assay type: in vivo; conditions: −30 min
Procedure: The method applied here follows that described by Broekkamp et al. (1986). Mice (n=15 per treatment group) were individually placed in transparent plastic cages (33×21×18 cm) with 5 cm of sawdust on the floor and 25 marbles (diameter 1 cm) grouped in the centre of the cage. A second, up-turned, cage served as a lid. The number of marbles covered by sawdust (by at least two-thirds) was counted at the end of the 30-min test period. Tests were performed by investigators blind to the drug treatment protocol.
Prior to testing, all test cages and marbles were “impregnated” by leaving 10 naive mice in each cage for 15 minutes.
Carnosol (3, 10 and 30 mg/kg) and rosmanol (10, 30 and 100 mg/kg) were administered i.p. 30 min before the test, and compared with a vehicle control group. Fluoxetine (32 mg/kg), administered under the same experimental conditions, was used as a reference substance.

[1] = test system: synaptic markers pCREB, pMAPK, GluR1 in hippocampal slice cultures; test: Activation of synaptic (LTP) markers in hippocampal slice cultures; assay type: cell-based, Wistar rats; conditions: hippocampal slices, 15 min treatment; for GluR1, percentage of control values: cell surface AMPA receptor 1; for pCREB, relative activation / pMAPK, relative activation: vs buffer-treated sister cultures
Procedure: Seven-day-old Wistar rats were decapitated using a guillotine. In less than 1 minute the skull was opened, the cerebral hemispheres were separated and transferred and both hippocampi were dissected and transferred into ice-cold buffer containing 137 mM NaCl, 5 mM KCl, 0.85 mM Na2HPO4, 1.5 mM CaCl2, 0.66 mM KH2PO4, 0.28 mM MgSO4, 1 mM MgCl2, 2.7 mM NaHCO3, 1 mM Kynurenic acid and 0.6% D-glucose.
Transverse hippocampal slices (400 μm) were prepared using a vibrating blade microtome (VT1200S; Leica Microsystems (Schweiz) AG, Heerbrugg, Switzerland) in the same buffer. Hippocampal slices were individually placed on membrane inserts (Millicell Culture Plate Inserts, 0.4 μm) and cultivated at 35° C., 5% CO2, 95% humidity in a medium containing a 1:1 mixture of BME and MEM (both from Invitrogen) containing 25% heat-inactivated horse serum, 1× GlutaMAX, 1× Penicillin/Streptomycin, 0.6% glucose and 1 mM Kynurenic acid (Stoppini, Buchs and Muller (1991), J. Neurosci. Methods, 37(2), 173-82).
After 48 h in culture, synaptic NMDA receptors were activated by addition of carnosol or rosmanol for 15 min in 140 mM NaCl, 5 mM KCl, 1.3 mM CaCl2, 25 mM HEPES (pH 7.3), 33 mM D-glucose and 0.02 mM bicuculline methiodide. […] An additional positive control comprised the addition of 200 μM glycine to sister cultures. After the treatments, sections were washed and fixed for immunohistochemistry. Markers of enhanced synaptic activity, normally associated with long-term potentiation, representing an ex vivo model of learning and memory were quantitated (see Table 6, below).
Treatment of hippocampal cultures with carnosol and rosmanol induced one or more biochemical markers typical for LTP (pCREB: activated form of the cAMP response element binding protein; pMAPK: activated form of the mitogen-activated protein kinase; GluR1: cell surface presence of AMPA receptor 1).

[2] = target: T1, human serotonin re-uptake transporter (hSERT) (Homo sapiens, UniProt P31645); test: Serotonin uptake inhibition in HEK-293 cells expressing hSERT; assay type: cell-based; conditions: transfected HEK-293 cells, [3H]-serotonin 20 nM, mean ± s.e.m. (n = 2)
T1 construct: host or cells: HEK-293
Procedure: The cells were routinely grown in Dulbecco's Modified Eagle's Medium (Bioconcept) containing 10% dialysed foetal calf serum (Invitrogen), penicillin, streptomycin, L-glutamine and the antibiotic G418 and passaged by-trypsinisation. On the day of assay, cells from 80% confluent flasks were harvested by gentle washing with warm phosphate buffered saline (PBS). […] Serotonin uptake into the cells was determined by addition of radio-labelled [^3H]-serotonin (GE Healthcare) at a concentration of 20 nM, and incubation for 40 minutes at 37° C. with gentle shaking. At the end of this time unincorporated label was removed by filtration though Unifilter 96 GF/B plates (Perkin Elmer) using a Tomtec Mach III M cell harvester. The incorporated serotonin retained on the plates was quantified by liquid scintillation counting using Microscint-40/Topcount (Perkin Elmer).

[3] = target: T2, monoamine oxidase B (MAO-B) (Homo sapiens, UniProt P27338); test: Monoamine oxidase B inhibition (benzylamine substrate, HRP/vanillic acid readout); assay type: biochemical; conditions: mean ± s.e.m., n = 2
T2 sequence (P27338 1-520): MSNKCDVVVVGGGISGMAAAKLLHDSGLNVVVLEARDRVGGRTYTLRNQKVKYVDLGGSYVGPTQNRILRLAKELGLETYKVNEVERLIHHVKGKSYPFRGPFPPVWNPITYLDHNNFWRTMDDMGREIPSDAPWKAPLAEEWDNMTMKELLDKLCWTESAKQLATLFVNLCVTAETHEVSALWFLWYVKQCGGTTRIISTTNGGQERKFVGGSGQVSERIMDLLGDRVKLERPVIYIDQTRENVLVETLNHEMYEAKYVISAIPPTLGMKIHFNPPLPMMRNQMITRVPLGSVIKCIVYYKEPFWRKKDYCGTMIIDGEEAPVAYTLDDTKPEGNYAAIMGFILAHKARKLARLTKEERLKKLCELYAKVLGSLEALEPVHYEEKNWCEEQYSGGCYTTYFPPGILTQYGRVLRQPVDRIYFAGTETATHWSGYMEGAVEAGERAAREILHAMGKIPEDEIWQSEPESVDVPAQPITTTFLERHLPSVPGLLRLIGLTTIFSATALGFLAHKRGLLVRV
Procedure: The organic amines p-tyramine or benzylamine were used as substrates for the monoamine oxidase A (MAO-A) and B (MAO-B) enzymes respectively. The H2O2 produced by this reaction was quantified by reaction with vanillic acid, catalysed by horse radish peroxidase (HRP).
The reactions were carried out at 37° C. in polystyrene microtitre plates. The MAO enzymes (final concentration 2 U/ml) were mixed with either p-tyramine (Sigma, final concentration 0.5 mM) or benzylamine (Sigma, final concentration 0.5 mM) as appropriate and the chromogenic solution (containing vanillic acid (Fluka), 4-aminoantipyrine (Fluka) and horse radish peroxidase (Sigma), final concentrations 0.25 mM, 0.125 mM and 1 U/ml, respectively) in 0.2 M potassium phosphate buffer, pH 7.6. After 40 min incubation, plates were analysed in a microtitre plate absorbance reader, e.g. Spectramax M5 (Molecular Devices Corporation), at 495 nm.
The effects of carnosol and rosmanol on the monoamine oxidase enzymes were determined by their inclusion in the assay at a range of concentrations between 0.03 and 100 μM for 10 minutes prior to and during the incubation with substrate. To determine the effect of the compounds on the HRP-catalysed portion of the reaction, the MAO enzyme was replaced by H2O2 (Molecular Probes, final concentration 50 μM). […]

T1 sequence (P31645 whole entry): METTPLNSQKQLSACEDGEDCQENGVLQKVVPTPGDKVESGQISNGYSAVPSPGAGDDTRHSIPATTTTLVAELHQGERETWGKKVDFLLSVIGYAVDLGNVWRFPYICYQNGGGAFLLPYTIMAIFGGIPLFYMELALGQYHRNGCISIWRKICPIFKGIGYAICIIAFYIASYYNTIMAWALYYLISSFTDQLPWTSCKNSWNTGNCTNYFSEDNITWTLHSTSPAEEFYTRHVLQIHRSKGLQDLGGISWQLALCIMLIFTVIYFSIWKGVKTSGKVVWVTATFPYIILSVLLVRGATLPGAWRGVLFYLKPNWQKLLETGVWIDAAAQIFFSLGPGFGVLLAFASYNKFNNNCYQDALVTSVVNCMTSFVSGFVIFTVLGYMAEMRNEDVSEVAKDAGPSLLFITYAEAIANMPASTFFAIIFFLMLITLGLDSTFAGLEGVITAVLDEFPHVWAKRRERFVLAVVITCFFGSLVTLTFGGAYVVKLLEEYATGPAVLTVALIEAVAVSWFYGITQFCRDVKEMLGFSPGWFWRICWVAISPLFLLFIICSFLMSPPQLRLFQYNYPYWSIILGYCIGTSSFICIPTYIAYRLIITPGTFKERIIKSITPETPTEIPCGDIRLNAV

Structure (SMILES) | Number of marbles buried (% change from control) (mouse; 10 mg/kg i.p.) [%] | Number of marbles buried (% change from control) (mouse; 30 mg/kg i.p.) [%] | Number of marbles buried (% change from control) (mouse; 100 mg/kg i.p.) [%] | GluR1, percentage of control values [1] [%] | pCREB, relative activation [1] | pMAPK, relative activation [1] | IC50 [2] [µM] | IC50 [3] [µM] | Number of marbles buried (% change from control) (mouse; 3 mg/kg i.p.) [%]
CC(C)c1cc2c(c(O)c1O)[C@@]13CCCC(C)(C)[C@@H]1[C@H](OC3=O)[C@H]2O [Rosmanol, rosmanol] | −21 | −12 | −55 | 320 | ± | + | 23.2 ± 9.7 | 73.3 ± 11.3 | 
CC(C)c1cc2c(c(O)c1O)[C@@]13CCCC(C)(C)[C@@H]1C[C@@H]2OC3=O [Carnosol, carnosol] | −10 | −41 |  | 608 | ± | ++ | 26.6 ± 6.9 | 107 ± 19.9 | −12
